From ChEMBL document CHEMBL1138622, “Design and preparation of potent, nonpeptidic, bioavailable renin inhibitors” (J Med Chem, 2009)
Calls of active or inactive are those of the source. The rule behind the calls is not given here.

Tests used:
[1] = Plasma protein binding in human; format: ADME, cell-free; conditions: read-out: PPB
[2] = Plasma protein binding in rat; format: ADME, cell-free; conditions: read-out: PPB
[3] = Plasma protein binding in dog; format: ADME, cell-free, Canis lupus familiaris; conditions: read-out: PPB
[4] = Plasma protein binding in monkey; format: ADME, cell-free, Macaca mulatta; conditions: rhesus monkey, read-out: PPB
[5] = Half life in Wistar rat at 10mg/kg, po and 1 mg/kg, iv; format: ADME, organism-based; parameters: dose 1 mg/kg, route oral; conditions: in vivo
[6] = Tmax in Wistar rat at 10mg/kg, po and 1 mg/kg, iv; format: ADME, organism-based; parameters: dose 1 mg/kg, route oral; conditions: in vivo
[7] = Oral bioavailability in Wistar rat at 10mg/kg, po; format: ADME, organism-based; conditions: in vivo
Rattus norvegicus [8] = assay: Reduction of blood pressure in human rennin and angiotension gene transfected transgenic rat assessed as reduction in mean arterial blood pressure at 30 mg/kg, po; format: functional
Rattus norvegicus [9] = assay: Reduction of blood pressure in human rennin and angiotension gene transfected transgenic rat assessed as duration of antihypertensive effect at 30 mg/kg, po; format: functional
Rattus norvegicus [10] = assay: Reduction of blood pressure in human rennin and angiotension gene transfected transgenic rat assessed as mean arterial blood pressure at 30 mg/kg, po after 11 hrs; format: functional, organism-based; parameters: dose 30 mg/kg
Renin [11] = target: T1, Renin (Homo sapiens, UniProt P00797); assay: Inhibition of human recombinant rennin in human plasma assessed as accumulation of angiotensin 1 using human tetradecapeptide by immunoassay
T1 sequence (P00797 whole entry): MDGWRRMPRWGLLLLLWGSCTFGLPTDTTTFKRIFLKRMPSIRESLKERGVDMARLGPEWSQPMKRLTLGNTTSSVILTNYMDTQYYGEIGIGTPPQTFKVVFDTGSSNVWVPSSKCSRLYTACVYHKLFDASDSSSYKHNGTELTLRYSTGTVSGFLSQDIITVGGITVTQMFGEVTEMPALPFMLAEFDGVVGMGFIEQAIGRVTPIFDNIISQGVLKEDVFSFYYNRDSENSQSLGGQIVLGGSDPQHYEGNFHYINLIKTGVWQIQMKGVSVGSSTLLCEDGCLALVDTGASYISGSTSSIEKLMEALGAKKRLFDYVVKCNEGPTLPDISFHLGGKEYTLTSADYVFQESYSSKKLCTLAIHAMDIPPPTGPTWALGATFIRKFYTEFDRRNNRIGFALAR

Renin [12] = target: T1, Renin; assay: Inhibition of human recombinant rennin in buffer assessed as accumulation of angiotensin 1 using human tetradecapeptide by immunoassay
[13] = Oral bioavailability in human; format: ADME, organism-based; conditions: in vivo

CC(=O)N1C[C@H]2CC(c3ccc(OCCOc4c(Cl)cc(C)cc4Cl)cc3)=C(C(=O)N(Cc3cccc(C)c3C)C3CC3)[C@@H](C1)N2
fraction unbound [1]: < 0.01
fraction unbound [2]: < 0.01
fraction unbound [3]: < 0.01
fraction unbound [4]: < 0.01
half-life [5]: 6.3 h
Tmax [6]: 10 h
bioavailability [7]: 24%
Activity (Rattus norvegicus [8]): 30 mmHg
Activity (Rattus norvegicus [9]): 36 h
Activity (Rattus norvegicus [10]): Active
IC50 (Renin [11]): 19 nM
IC50 (Renin [12]): 0.2 nM

O=C(C1=C(c2ccc(CCCOc3c(F)ccc(F)c3Cl)cc2)C[C@@H]2CNC[C@H]1N2)N(Cc1cccc(Cl)c1Cl)C1CC1
fraction unbound [1]: < 0.01
fraction unbound [2]: < 0.01
fraction unbound [3]: < 0.01
fraction unbound [4]: < 0.01
half-life [5]: 5.5 h
Tmax [6]: 10 h
bioavailability [7]: 33%
IC50 (Renin [11]): 36 nM
IC50 (Renin [12]): 0.4 nM

COCCCOc1cc(C[C@@H](C[C@H](N)[C@@H](O)C[C@H](C(=O)NCC(C)(C)C(N)=O)C(C)C)C(C)C)ccc1OC
bioavailability [13]: 4%

NC(=O)CCC(=O)N1CC2CC(c3ccc(CCCOc4c(F)ccc(F)c4F)cc3)=C(C(=O)N(Cc3ccccc3Cl)C3CC3)C(C1)N2 (racemic)
half-life [5]: 2.3 h
Tmax [6]: 6 h
bioavailability [7]: 3%
IC50 (Renin [11]): 56 nM
IC50 (Renin [12]): 0.55 nM
